# In ChEMBL document CHEMBL1201862, “PubChem BioAssay data set” (2004):
#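 Protocol summary: plate cells (96-well), add compound at 5 concentrations, incubate 48 h, interpolate endpoints linearly. Here, GI50 denotes the concentration required for 50% inhibition of growth.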 Calls of active or inactive are those of the source. No stated cut-off is given here; in the data, active = GI50 up to about 1.1 µM and inactive = higher.
# Tests used:
# Assay in all cases: NCI tumour cell line growth inhibition, 48 h
# [1] = test system: OVCAR-8
# [2] = test system: COLO 205
# [3] = test system: SNB-19
# [4] = test system: HCT-116
# [5] = test system: NCI-H23
# [6] = test system: SN12C
# [7] = test system: A549
# [8] = test system: HT-29
# [9] = test system: MCF7
# [10] = test system: SF-268
# [11] = test system: MDA-N
# [12] = test system: M14
# [13] = test system: KM12
# [14] = test system: CAKI-1
# [15] = test system: HCC 2998
# [16] = test system: UO-31
# [17] = test system: NCI-H460
# [18] = test system: Malme-3M
# [19] = test system: HOP-92
# [20] = test system: NCI-H226
SMILES,GI50 [1],GI50 [2],GI50 [3],GI50 [4],GI50 [5],GI50 [6],GI50 [7],GI50 [8],GI50 [9],GI50 [10],GI50 [11],GI50 [12],GI50 [13],GI50 [14],GI50 [15],GI50 [16],GI50 [17],GI50 [18],GI50 [19],GI50 [20]
COc1cccc(C2c3cc4c(cc3OC(N3CCOCC3)C2C)OCO4)c1OC (stereo not given),5.68 µM (inactive),9.04 µM (inactive),3.81 µM (inactive),2.98 µM (inactive),14.8 µM (inactive),8.07 µM (inactive),9.98 µM (inactive),2.96 µM (inactive),7.91 µM (inactive),9.59 µM (inactive),13.7 µM (inactive),9.1 µM (inactive),5.68 µM (inactive),2.02 µM (inactive),10.4 µM (inactive),7.03 µM (inactive),7.71 µM (inactive),,,
COc1cc(-c2ccc(/N=N/c3ccc4c(S(=O)(=O)O)cc(S(=O)(=O)O)c(N)c4c3O)c(OC)c2)ccc1/N=N/c1ccc2c(S(=O)(=O)O)cc(S(=O)(=O)O)c(N)c2c1O,> 100 µM (inactive),> 100 µM (inactive),> 100 µM (inactive),> 100 µM (inactive),> 100 µM (inactive),> 100 µM (inactive),> 100 µM (inactive),> 100 µM (inactive),> 100 µM (inactive),> 100 µM (inactive),,,> 100 µM (inactive),,> 100 µM (inactive),> 100 µM (inactive),> 100 µM (inactive),> 100 µM (inactive),> 100 µM (inactive),> 87.5 µM (inactive)
COc1cc(/C=C(/C#N)C(N)=O)ccc1O,> 100 µM (inactive),> 100 µM (inactive),> 100 µM (inactive),> 100 µM (inactive),> 100 µM (inactive),> 100 µM (inactive),> 100 µM (inactive),> 100 µM (inactive),> 100 µM (inactive),> 100 µM (inactive),,,> 100 µM (inactive),> 100 µM (inactive),> 60.5 µM (inactive),> 41.5 µM (inactive),> 100 µM (inactive),53.6 µM (inactive),> 56.8 µM (inactive),> 88.9 µM (inactive)
CC(C)(C)c1ccc(O)c(C(c2ccc([N+](=O)[O-])cc2)c2cc(C(C)(C)C)ccc2O)c1,2.56 µM (inactive),2.5 µM (inactive),2.41 µM (inactive),2.43 µM (inactive),1.99 µM (inactive),2.38 µM (inactive),1.86 µM (inactive),1.87 µM (inactive),2 µM (inactive),1.63 µM (inactive),,1.68 µM (inactive),1.89 µM (inactive),1.51 µM (inactive),1.95 µM (inactive),1.95 µM (inactive),,,2.02 µM (inactive),1.78 µM (inactive)
CC1=NC2=Nc3nc(C)cc[n+]3CN2C=C1,> 100 µM (inactive),67.5 µM (inactive),> 100 µM (inactive),38.9 µM (inactive),> 100 µM (inactive),92.5 µM (inactive),79.3 µM (inactive),31.8 µM (inactive),> 100 µM (inactive),> 100 µM (inactive),,> 100 µM (inactive),,0.144 µM (active),58.2 µM (inactive),> 100 µM (inactive),43.2 µM (inactive),49.5 µM (inactive),95.7 µM (inactive),> 100 µM (inactive)
CCOC(=O)C(NC(=O)CC(C)C)(Nc1ccc(S(=O)(=O)Nc2nc(C)cc(C)n2)cc1)C(F)(F)F (stereo not given),> 100 µM (inactive),> 100 µM (inactive),> 100 µM (inactive),> 100 µM (inactive),> 100 µM (inactive),> 100 µM (inactive),> 100 µM (inactive),> 100 µM (inactive),,> 100 µM (inactive),> 100 µM (inactive),> 100 µM (inactive),> 100 µM (inactive),> 100 µM (inactive),7.87 µM (inactive),> 100 µM (inactive),> 100 µM (inactive),> 100 µM (inactive),> 100 µM (inactive),> 100 µM (inactive)
OCN(CO)c1ccc2c(c1)Cc1cc(F)ccc1-2,19.7 µM (inactive),12.4 µM (inactive),17.9 µM (inactive),39.5 µM (inactive),33.3 µM (inactive),18.2 µM (inactive),21.9 µM (inactive),14.8 µM (inactive),18.6 µM (inactive),23.8 µM (inactive),,21 µM (inactive),17.8 µM (inactive),20 µM (inactive),,19.6 µM (inactive),24.7 µM (inactive),18.1 µM (inactive),,15.7 µM (inactive)
C/C(=N\Nc1nc2ccccc2o1)c1ccc2ccccc2n1,2.89 µM (inactive),3.85 µM (inactive),8.26 µM (inactive),2.55 µM (inactive),8.75 µM (inactive),3.42 µM (inactive),4.2 µM (inactive),1.89 µM (inactive),6.12 µM (inactive),5.06 µM (inactive),6.49 µM (inactive),2.57 µM (inactive),3.48 µM (inactive),1 µM (active),,2.09 µM (inactive),3.7 µM (inactive),4.21 µM (inactive),,
CC1=C2C(O)C(C(C)C(=O)NCC(C)C)CCC2(C)C=CC1=O (stereo not given),> 100 µM (inactive),> 100 µM (inactive),> 100 µM (inactive),> 100 µM (inactive),> 100 µM (inactive),> 100 µM (inactive),> 100 µM (inactive),> 100 µM (inactive),> 100 µM (inactive),> 100 µM (inactive),,,> 100 µM (inactive),> 100 µM (inactive),> 100 µM (inactive),> 100 µM (inactive),> 100 µM (inactive),,> 100 µM (inactive),> 100 µM (inactive)
C=CCn1c2ccccc2c2c(C)c3cnccc3c(C)c21,5.53 µM (inactive),6.4 µM (inactive),12.9 µM (inactive),4.48 µM (inactive),6.95 µM (inactive),9.1 µM (inactive),9.77 µM (inactive),8.93 µM (inactive),5.52 µM (inactive),7.98 µM (inactive),,,4.38 µM (inactive),2.06 µM (inactive),20.4 µM (inactive),4.39 µM (inactive),4.47 µM (inactive),13.8 µM (inactive),1.92 µM (inactive),5.16 µM (inactive)
CCOC(=O)c1c2c(n(Cc3ccccc3)c1C)C(=O)C(=O)c1ccccc1-2,0.237 µM (active),0.705 µM (active),0.315 µM (active),0.235 µM (active),0.231 µM (active),0.171 µM (active),0.431 µM (active),0.989 µM (active),0.293 µM (active),0.415 µM (active),,0.452 µM (active),0.574 µM (active),0.5 µM (active),0.56 µM (active),0.906 µM (active),0.418 µM (active),0.0968 µM (active),0.802 µM (active),0.55 µM (active)
Clc1c(Cl)c(Cl)c2nn(C3CCCO3)nc2c1Cl (stereo not given),63.5 µM (inactive),55.6 µM (inactive),26.7 µM (inactive),50.6 µM (inactive),37.8 µM (inactive),46.5 µM (inactive),37.4 µM (inactive),49.1 µM (inactive),46.3 µM (inactive),46.6 µM (inactive),30.5 µM (inactive),> 100 µM (inactive),,80.4 µM (inactive),91 µM (inactive),,,39.4 µM (inactive),,> 100 µM (inactive)
COC(=O)C1=C(O)C(C(=O)OC)[C@@]2(O)[C@@H](C(=O)OC)CC[C@@H]1[C@@H]2C(=O)OC (stereo not given in full),,,43.4 µM (inactive),30.4 µM (inactive),17.8 µM (inactive),25.4 µM (inactive),,> 100 µM (inactive),35.6 µM (inactive),29.4 µM (inactive),,22.6 µM (inactive),21.6 µM (inactive),,16.4 µM (inactive),29.2 µM (inactive),16.1 µM (inactive),21.5 µM (inactive),,20.1 µM (inactive)
C=CC12CN(C)C3C4COC(CC41)C1(C(=O)Nc4ccccc41)C32 (stereo not given),> 200 µM (inactive),> 149 µM (inactive),> 200 µM (inactive),158 µM (inactive),> 173 µM (inactive),> 200 µM (inactive),166 µM (inactive),> 145 µM (inactive),> 200 µM (inactive),173 µM (inactive),,,168 µM (inactive),> 200 µM (inactive),> 151 µM (inactive),> 181 µM (inactive),166 µM (inactive),174 µM (inactive),> 140 µM (inactive),6.67 µM (inactive)
S=C(c1c[nH]c2ccccc12)N1CCCCC1,> 100 µM (inactive),> 100 µM (inactive),> 100 µM (inactive),95.1 µM (inactive),> 100 µM (inactive),> 100 µM (inactive),,> 100 µM (inactive),84.1 µM (inactive),> 100 µM (inactive),> 100 µM (inactive),> 100 µM (inactive),> 100 µM (inactive),> 100 µM (inactive),,,> 100 µM (inactive),> 100 µM (inactive),,> 100 µM (inactive)
COC(=O)c1c(O)ccc2c1c1c(n2Cc2ccc(Cl)cc2Cl)C(=O)c2ccccc2C1,37.8 µM (inactive),45.7 µM (inactive),61.7 µM (inactive),87.9 µM (inactive),60 µM (inactive),23.1 µM (inactive),41.3 µM (inactive),79.6 µM (inactive),26.8 µM (inactive),32.5 µM (inactive),52.8 µM (inactive),89.1 µM (inactive),22 µM (inactive),,,97.9 µM (inactive),33.3 µM (inactive),97.7 µM (inactive),,27.6 µM (inactive)
